Assay results from ChEMBL document CHEMBL4665818, “Calvatianone, a Sterol Possessing a 6/5/6/5-Fused Ring System with a Contracted Tetrahydrofuran B-Ring, from the Fruiting Bodies of Calvatia nipponica” (J Nat Prod, 2020).
Calls of active or inactive are those of the source. The calls are words filed in the database; no cut-off is given here.

How the values were obtained:
Format in all cases: functional, cell-based
MCF7 [1] = test: Cytotoxicity against human MCF7 cells assessed as reduction in cell viability at 100 nM after 24 hrs in presence of ER antagonist ICI 182,780 by MTT assay
MCF7 [2] = test: Cytotoxicity against human MCF7 cells assessed as reduction in cell viability <= 100 uM after 24 hrs by MTT assay; settings: dose microM <=100, time 24.0 hrs
MCF7 [3] = test: Cytotoxicity against human MCF7 cells assessed as 17beta-estradiol-induced reduction in cell viability at 100 uM after 24 hrs by MTT assay
MCF7 [4] = test: Cytotoxicity against human MCF7 cells assessed as 17beta-estradiol-induced reduction in cell viability at 200 uM after 24 hrs by MTT assay

| Structure (SMILES) | Activity (MCF7 [1]) | Activity (MCF7 [2]) | Activity (MCF7 [3]) | Activity (MCF7 [4]) |
| --- | --- | --- | --- | --- |
| CC(C)[C@@H](C)/C=C/[C@@H](C)[C@H]1CCC(=O)[C@]23CC(=O)[C@@H]4CC(=O)CC[C@]4(C)[C@H]2CC[C@]13C | Active | Active |  |  |
| CC(C)[C@@H](C)/C=C/[C@@H](C)[C@H]1CC[C@@H]2[C@]1(C)CC[C@H]1[C@]23C=C[C@]2(C[C@@H](O)CC[C@]12C)OO3 | Active | Active | Active |  |
| COC(=O)C[C@]12OC3=CC(=O)CC[C@]3(C)[C@H]1CC[C@]1(C)[C@@H]([C@H](C)/C=C/[C@H](C)C(C)C)CC[C@H]12 | Active | Active |  |  |
| CC(C)[C@@H](C)/C=C/[C@@H](C)[C@H]1CC[C@H]2[C@]3(O)C=CC4=CC(=O)CC[C@]4(C)[C@H]3CC[C@]12C | Active | Active |  | Active |
| CC(C)[C@@H](C)/C=C/[C@@H](C)[C@H]1CC[C@@H]2[C@]1(C)CC=C1[C@]23C=C[C@]2(C[C@@H](O)CC[C@]12C)OO3 | Active | Active |  |  |
